Activity calls are given as the source filed them. The calls are words filed in the database; no cut-off is given here.
How the values were obtained:
[1] = Cmax in BALB/c male mouse at 10 mg/kg, po measured upto 24 hrs by LC-MS/MS analysis; type: ADME, organism-based; settings: in vivo
[2] = Toxicity in male nude mouse implanted with human Huh-7 cells assessed as spleen damage at 12.5 to 50 mg/kg, ip administered for 15 days; type: organism-based; settings: in vivo, 360 h, dose 12.5-50 mg/kg, time 15 day
[3] = test system: Hep 3B2; assay: Induction of apoptosis in human Hep3B cells assessed as viable cells at 0.5 uM incubated for 48 hrs by annexin V-FITC/propidium iodide staining based flow cytometry analysis (reference value: 84.91%); type: functional; settings: read-out: Activity
[4] = test system: Huh-7; assay: Induction of apoptosis in human Huh-7 cells assessed as late apoptotic cells at 1 uM incubated for 48 hrs by annexin V-FITC/propidium iodide staining based flow cytometry analysis (reference value: 5.20%); type: functional
[5] = Tmax in BALB/c male mouse at 10 mg/kg, po measured upto 24 hrs by LC-MS/MS analysis; type: ADME, organism-based; settings: in vivo
[6] = test system: Hep 3B2; assay: Effect on MAPK level in human Hep3B cells at 0.25 to 1 uM incubated for 48 hrs by Western blot analysis; type: functional, cell-based; settings: dose 0.25-1 µM
[7] = MRT (0 to t) in BALB/c male mouse at 1 mg/kg, iv measured upto 24 hrs by LC-MS/MS analysis; type: ADME, organism-based; settings: in vivo
[8] = test system: Huh-7; assay: Induction of apoptosis in human Huh-7 cells assessed as early apoptotic cells at 0.5 uM incubated for 48 hrs by annexin V-FITC/propidium iodide staining based flow cytometry analysis (reference value: 4.59%); type: functional
[9] = test system: Huh-7; assay: Antitumor activity against human Huh-7 cells xenografted in nude mouse assessed as tumor growth inhibition at 25 mg/kg, ip administered for 15 days; type: functional; settings: Huh-7, 360 h, time 15 day, read-out: TGI
[10] = test system: Hep 3B2; assay: Induction of apoptosis in human Hep3B cells assessed as late apoptotic cells at 0.25 uM incubated for 48 hrs by annexin V-FITC/propidium iodide staining based flow cytometry analysis (reference value: 5.20%); type: functional
[11] = test system: Huh-7; assay: Induction of apoptosis in human Huh-7 cells assessed as viable cells at 1 uM incubated for 48 hrs by annexin V-FITC/propidium iodide staining based flow cytometry analysis (reference value: 84.91%); type: functional; settings: read-out: Activity
[12] = GSH reactivity in potassium phosphate buffer at pH 7.4 assessed as half life at 1 uM measured at 2 to 1440 mins by LC-MS/MS analysis; type: physicochemical; settings: potassium phosphate buffer with GSH, time 2-1440 min
[13] = test system: Hep 3B2; assay: Induction of apoptosis in human Hep3B cells assessed as necrotic cells at 0.5 uM incubated for 48 hrs by annexin V-FITC/propidium iodide staining based flow cytometry analysis (reference value: 5.20%); type: functional
[14] = test system: Huh-7; assay: Induction of apoptosis in human Huh-7 cells assessed as viable cells at 0.5 uM incubated for 48 hrs by annexin V-FITC/propidium iodide staining based flow cytometry analysis (reference value: 84.91%); type: functional; settings: read-out: Activity
[15] = test system: Hep 3B2; assay: Induction of apoptosis in human Hep3B cells assessed as late apoptotic cells at 1 uM incubated for 48 hrs by annexin V-FITC/propidium iodide staining based flow cytometry analysis (reference value: 5.20%); type: functional
[16] = test system: Huh-7; assay: Induction of apoptosis in human Huh-7 cells assessed as early apoptotic cells at 0.1 uM incubated for 48 hrs by annexin V-FITC/propidium iodide staining based flow cytometry analysis (reference value: 4.59%); type: functional
[17] = Half life in BALB/c male mouse at 1 mg/kg, iv measured upto 24 hrs by LC-MS/MS analysis; type: ADME, organism-based; settings: in vivo
[18] = test system: Huh-7; assay: cells; settings: Homo sapiens, Huh-7, 72 h
Description: Antiproliferative activity against human Huh-7 cells assessed as inhibition of cell proliferation incubated for 72 hrs by MTT assay

[19] = AUC (0 to t) in BALB/c male mouse at 1 mg/kg, iv measured upto 24 hrs by LC-MS/MS analysis; type: ADME, organism-based; settings: in vivo
[20] = Toxicity in male nude mouse implanted with human Huh-7 cells assessed as heart damage at 12.5 to 50 mg/kg, ip administered for 15 days; type: organism-based; settings: in vivo, 360 h, dose 12.5-50 mg/kg, time 15 day

SMILES: C=CC(=O)Nc1cccc(C)c1Nc1ncc(C#Cc2cccc(C(=O)Nc3ccc(CN4CCN(C)CC4)c(C(F)(F)F)c3)c2)cn1
- Cmax [1]: 91.3 ng/mL
- Activity [2]: Non-toxic
- viability at 0.5 µM [3]: 68.9%
- Activity [4]: 25.23%
- Tmax [5]: 60 min
- Activity [6]: Active
- MRT last at 24 h [7]: 46.2 min
- Activity [8]: 5.07%
- inhibition in vivo at 25 mg/kg [9]: 50.3%
- Activity [10]: 9.17%
- viability at 1 µM [11]: 63%
- half-life at 1 µM [12]: 81.3 min
- Activity [13]: 6.93%
- viability at 0.5 µM [14]: 75.3%
- Activity [15]: 22.07%
- Activity [16]: 3.69%
- half-life [17]: 47.4 min
- IC50 [18]: 150 nM
- AUC(0-t) at 24 h [19]: 241 ng·h/mL
- Activity [20]: Non-toxic

From ChEMBL document CHEMBL6121004, “Design, synthesis, and biological evaluation of Ponatinib-based N-Phenylpyrimidine-2-amine derivatives as novel fibroblast growth factor receptor 4 (FGFR4) selective inhibitors” (Eur J Med Chem, 2025)
